# According to the supplement of paper PMC3974653:
# Counter-ions that a name gives are not always drawn.
# System: MTT (mouse pheochromocytoma)
# Assay: IC50 of cell viability (ATP content)
# Details: (24 or 48 h)
# Outline: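 The IC50 was fitted with a four-parameter logistic equation to normalised CellTiter-Glo ATP luminescence from MTT mouse pheochromocytoma cells. These cells, in white 1536-well plates, had been treated for 24 or 48 hrs with library compounds at 8 final concentrations between 0.5 nM and 46 µM, and luminescence was read after 15 minutes. Positive-control wells served as 100% and DMSO wells as 0%.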
row,Compound,IC50 of cell viability
1,CC(C)=CCC/C(C)=C/CO [GERANIOL],> 46 µM
2,C#C[C@]1(O)CC[C@H]2[C@@H]3CCC4=CC(=O)CCC4=C3C=C[C@@]21CC [GESTRINONE],> 46 µM
3,Oc1cc(O)c(Cl)cn1 [GIMERACIL],> 46 µM
4,C\C1=C\C(=O)OC2=CC(=CC=C12)OCC#C [GIPARMENUM],> 46 µM
5,Cc1cnc(C(=O)NCCc2ccc([S+](=O)([O-])NC(=O)NC3CCCCC3)cc2)cn1 [GLIPIZIDE],> 46 µM
6,"O=C(O)[C@@H](O)[C@@H](O)[C@H](O)[C@H](O)CO [GLUCONIC ACID, BARIUM SALT]",> 46 µM
7,O=C1OC(CO)C(O)C(O)C1O (stereo not given) [GLUCONOLACTONE],> 46 µM
8,Cl.N[C@@H]1C(O)OC(CO)C(O)C1O (stereo not given in full) [GLUCOSAMINE HYDROCHLORIDE],> 46 µM
9,NC(=O)[C@H]1O[C@@H](O)[C@H](O)[C@@H](O)[C@@H]1O [GLUCURONAMIDE],> 46 µM
10,NC(CCC(=O)N[C@@H](CS)C(=O)NCC(=O)O)C(=O)O (stereo not given in full) [GLUTATHIONE],> 46 µM
11,COc1ccc(Cl)cc1C(=O)NCCc1ccc([S+](=O)([O-])NC(=O)NC2CCCCC2)cc1 [GLYBURIDE],> 46 µM
12,CC(C)(C)c1nnc(N[S+](=O)([O-])c2ccccc2)s1 [GLYBUZOLE],> 46 µM
13,OCC(O)CO [GLYCERIN],> 46 µM
14,CCCCCCCCCCCC(=O)OCC(O)CO (stereo not given) [GLYCEROL MONOLAURATE],> 46 µM
15,CCCCCCCCCCCCCCCCCC(=O)OCC(O)CO (stereo not given) [GLYCERYL MONOSTEARATE],> 46 µM
16,O=C(NN1CCCC1)N[S+](=O)([O-])c1ccc(Cl)cc1 [GLYCLOPYRAMIDE],> 46 µM
17,"CC1(C(=O)O)CCC2(C)CCC3(C)C(=CC(=O)[C@@H]4C5(C)CC[C@H](O[C@H]6O[C@H](C(=O)O)C(O)C(O)[C@H]6O[C@@H]6O[C@H](C(=O)O)C(O)C(O)C6O)C(C)(C)[C@@H]5CCC43C)[C@@H]2C1 (stereo not given in full) [GLYCYRRHIZIC ACID, MONOSODIUM SALT]",> 46 µM
18,Cc1ccc(S(=O)(=O)NC(=O)NC2CCCCCCC2)cc1 [GLYOCTAMIDUM],> 46 µM
19,COc1ccc([S+](=O)([O-])Nc2nnc(CC(C)C)s2)cc1 [GLYSOBUZOLUM],> 46 µM
20,CC(C)CC(NC(=O)CNC(=O)C(Cc1ccc(O)cc1)NC(=O)C(CO)NC(=O)C(Cc1c[nH]c2ccccc12)NC(=O)C(Cc1c[nH]cn1)NC(=O)C1CCC(=O)N1)C(=O)NC(CCCNC(=N)N)C(=O)N1CCCC1C(=O)NCC(N)=O (stereo not given) [GONADORELIN],> 46 µM
21,CC(C)CC(NC(=O)C(COC(C)(C)C)NC(=O)C(Cc1ccc(O)cc1)NC(=O)C(CO)NC(=O)C(Cc1c[nH]c2ccccc12)NC(=O)C(Cc1cnc[nH]1)NC(=O)C1CCC(=O)N1)C(=O)NC(CCCN=C(N)N)C(=O)N1CCCC1C(=O)NNC(N)=O (stereo not given) [GOSERELIN ACETATE],> 46 µM
22,CC(C)C[C@@H](NC(=O)[C@@H](COC(C)(C)C)NC(=O)[C@H](Cc1ccc(O)cc1)NC(=O)[C@@H](CO)NC(=O)[C@@H](Cc1c[nH]c2ccccc12)NC(=O)[C@@H](Cc1c[nH]cn1)NC(=O)[C@@H]1CCC(=O)N1)C(=O)N[C@H](CCCNC(=N)N)C(=O)N1CCC[C@H]1C(=O)NNC(N)=O [GOSERELIN ACETATE],> 46 µM

row,Compound,IC50 of cell viability
1,Cc1c(F)c(N2CCNC(C)C2)cc2c1c(=O)c(C(=O)O)cn2C1CC1 (stereo not given) [GREPAFLOXACIN HYDROCHLORIDE],> 46 µM
2,N=C(N)N/N=C/c1c(Cl)cccc1Cl [GUANABENZ],> 46 µM
3,N=C(N)NC(=O)Cc1c(Cl)cccc1Cl [GUANFACINE],> 46 µM
4,N=C(N)N.O=C(O)O [GUANIDINE CARBONATE],> 46 µM
5,NCC1(CC(=O)O)CCCCC1 [Gabapentin],> 46 µM
6,CCOC(=O)c1ccc(OC(=O)CCCCCNC(=N)N)cc1.C[S+](=O)([O-])O [Gabexate mesilate],> 46 µM
7,OCC1OC(O)C(O)C(O)C1O (stereo not given) [Galactose],> 46 µM
8,O=C(O)c1cc(O)c(O)c(O)c1 [Gallic acid],> 46 µM
9,CCCCC/C=C\C/C=C\C/C=C\CCCCC(=O)O [Gamolenic acid],> 46 µM
10,N\C1=N\C2=C(N=C[N]2COC(CO)CO)C(=O)N1 [Ganciclovir],> 46 µM
11,C[C@H]1NCc2cc(-c3ccc4c(=O)c(C(=O)O)cn(C5CC5)c4c3OC(F)F)ccc21 [Garenoxacin],> 46 µM
12,COc1cc2ncnc(Nc3ccc(F)c(Cl)c3)c2cc1OCCCN1CCOCC1 [Gefitinib],> 46 µM
13,Cc1ccc(C)c(OCCCC(C)(C)C(=O)O)c1 [Gemfibrozil],> 46 µM
14,CN[C@@H](C)[C@H]1CC[C@@H](N)[C@H](O[C@@H]2[C@@H](O)[C@H](O[C@@H]3OC[C@@](C)(O)[C@@H](NC)[C@H]3O)[C@H](N)C[C@@H]2N)O1.CN[C@H]1[C@@H](O)[C@H](O[C@H]2[C@H](O)[C@@H](O[C@@H]3O[C@@H](CN)CC[C@H]3N)[C@@H](N)C[C@H]2N)OC[C@@]1(C)O.CN[C@H]1[C@@H](O)[C@H](O[C@H]2[C@H](O)[C@@H](O[C@@H]3O[C@@H]([C@H](C)N)CC[C@H]3N)[C@@H](N)C[C@H]2N)OC[C@@]1(C)O.O=[S+]([O-])(O)O [Gentamicine sulfate],> 46 µM
15,CC(C)=CCC/C(C)=C/CC/C(C)=C/CCC(=O)OC/C=C(\C)CCC=C(C)C [Geranyl farnesylacetate],> 46 µM
16,O=C(OC[C@@H](O)CO)c1ccccc1Nc1ccnc2cc(Cl)ccc12 [Glafenine hydrochloride],> 46 µM
17,Cc1ccc([S+](=O)([O-])NC(=O)NN2C[C@H]3CCC[C@@H]3C2)cc1 [Gliclazide],> 46 µM
18,CC\C1=C(/C)CN(C(=O)NCCC2=CC=C(C=C2)[S+]([O-])(=O)NC(=O)NC3CCC(C)CC3)C1=O (stereo not given) [Glimepiride],> 46 µM
19,COc1ccc2c(c1)C(=O)N(CCc1ccc([S+](=O)([O-])NC(=O)NC3CCCCC3)cc1)C(=O)C2(C)C [Gliquidone],> 46 µM
20,COc1ccc([S+](=O)([O-])Nc2nnc(CC(C)C)s2)cc1 [Glisobuzol],> 46 µM
21,Cc1cc(C(=O)NCCc2ccc([S+](=O)([O-])NC(=O)NN3CCCCCC3)cc2)no1 [Glisoxepide],> 46 µM
22,O=C1O[C@H]2[C@@H](OC(O)[C@@H]2O)[C@H]1O (stereo not given in full) [Glucuronolactone],> 46 µM

row,Compound,IC50 of cell viability
1,O=CCCCC=O [Glutaraldehyde (Glutaric dialdehyde)],> 46 µM
2,"CC[C@@]1(c2ccc(N)cc2)CCC(=O)NC1=O [Glutethimide, para-amino]",> 46 µM
3,CCC1(c2ccccc2)CCC(=O)NC1=O (stereo not given) [Glutethimide],> 46 µM
4,O=P([O-])([O-])OC(CO)CO [Glycerol phosphate calcium salt],> 46 µM
5,NCC(=O)O [Glycine],> 46 µM
6,CCCCCCCCCCCCCCCCCC(=O)OCCO [Glycol stearate],> 46 µM
7,C[N+]1(C)CCC(OC(=O)C(O)(c2ccccc2)C2CCCC2)C1 (stereo not given) [Glycopyrrolate bromide],> 46 µM
8,Cc1ccc([S+](=O)([O-])NC(=O)NC2CCCCC2)cc1 [Glycyclamide],> 46 µM
9,O=CC=O [Glyoxal],> 46 µM
10,COc1cc2c(c(OC)c1OC)-c1c(cc3c(c1OC)OCO3)CC(C)C(C)(O)C2 (stereo not given) [Gomisin A],> 46 µM
11,COc1cc2c(c(OC)c1OC)-c1c(cc3c(c1OC)OCO3)C[C@@H](C)[C@](C)(O)C2 [Gomisin A],> 46 µM
12,Cc1cc2c(C(C)C)c(O)c(O)c(C=O)c2c(O)c1-c1c(C)cc2c(C(C)C)c(O)c(O)c(C=O)c2c1O [Gossypol],> 46 µM
13,CN1[C@@H]2CCC[C@@H]1CC(NC(=O)c1nn(C)c3ccccc13)C2 (stereo not given in full) [Granisetron Hydrochloride],> 46 µM
14,COC1=CC(=C2C(=O)[C@]\3(OC2=C1Cl)[C@H](C)CC(=O)\C=C3OC)OC [Griseofulvin],> 46 µM
15,CCN(CC)CCOc1ccccc1OC [Guaiactamine],> 46 µM
16,COc1ccccc1OC[C@H](O)CO [Guaifenesin],> 46 µM
17,N=C(N)NC[C@@H]1COC2(CCCCC2)O1 [Guanadrel sulfate],> 46 µM
18,N=C(N)NCCN1CCCCCCC1 [Guanethidine sulfate],> 46 µM
19,N=C(N)NCC1COc2ccccc2O1 (stereo not given) [Guanoxano],> 46 µM
20,N=C(N)NCCCCCCC(=O)NC(O)C(=O)NCCCCNCCCN (stereo not given) [Gusperimus trihydrochloride],> 46 µM
21,O=C(O)c1ccc([S+](=O)([O-])N(Cl)Cl)cc1 [HALAZONE],> 46 µM
